Source: PubChem BioAssay (NCI)
Values joined by “and” are separate entries in the source; they are usually repeats but may differ in a detail not shown here. Equal entries are not always repeated.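 96-well plates; 48 h exposure; 5 concentrations. Endpoints by linear interpolation between flanking doses. Not reached: highest tested concentration assigned. At the GI50, growth is halved. TGI denotes the concentration required for complete inhibition of growth.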

Legend:
Test in all cases: DTP human tumour cell line panel, 48 h
[1] = tested on: LOX IMVI melanoma
[2] = tested on: IGROV1 ovarian
[3] = tested on: UO-31 renal
[4] = tested on: NCI-H23 lung
[5] = tested on: MDA-MB-435
[6] = tested on: PC-3 prostate
[7] = tested on: SK-MEL-5 melanoma
[8] = tested on: DU-145 prostate
[9] = tested on: SK-MEL-2 melanoma
[10] = tested on: EKVX NSCLC

Structure (SMILES)	GI50 [1]	TGI [1]	GI50 [2]	TGI [2]	GI50 [3]	TGI [3]	GI50 [4]	TGI [4]	GI50 [5]	TGI [5]	GI50 [6]	TGI [6]	GI50 [7]	TGI [7]	GI50 [8]	TGI [8]	GI50 [9]	TGI [9]	GI50 [10]	TGI [10]
O=C1NC(=NCCc2ccc(Br)cc2)S/C1=C\c1ccc2ncccc2c1	> 25 µM	> 25 µM	> 25 µM	> 25 µM	> 25 µM	> 25 µM	> 25 µM	> 25 µM	11.8 µM	> 25 µM	> 25 µM	> 25 µM	> 21 µM	> 25 µM	> 25 µM	> 25 µM	21.6 µM	> 25 µM		
N#Cc1c(N)nc(N2CCOCC2)c(C#N)c1-c1c(Cl)cccc1Cl	5.88 µM	24 µM	1.98 µM	5.08 µM	7.79 µM	44.1 µM			1.57 µM	3.8 µM	5.64 µM	31.1 µM	7.27 µM	21 µM	16.9 µM	> 100 µM	6.31 µM	93.2 µM	7.92 µM	> 100 µM
CC1(C)C(=O)/C=C\C(=O)C(C)(C)C(=O)/C=C\C(=O)C(C)(C)C2=CC=C(O2)C(C)(C)C(=O)/C=C\C1=O		13 µM		24.9 µM		28.3 µM		15.6 µM		29.3 µM		29.2 µM		21.2 µM		32.1 µM		25.5 µM		11.6 µM
C(=N\Nc1ccc2ccccc2n1)/c1ccccn1	0.422 µM	13.8 µM	0.388 µM	8.66 µM	0.304 µM	2.66 µM	0.857 µM	> 100 µM	1.01 µM	> 52.7 µM	0.825 µM	73 µM	0.694 µM	3.67 µM	0.374 µM	> 37.7 µM	0.511 µM	> 100 µM	0.37 µM	> 32.9 µM
CN1CCN(c2ccc(NC3=CC(=O)c4ncncc4C3=O)cc2)CC1	0.192 µM	0.401 µM	0.231 µM	0.542 µM	0.27 µM	0.761 µM	0.369 µM	1.67 µM	0.191 µM	0.35 µM	0.289 µM	1.14 µM	0.302 µM	0.871 µM	0.639 µM	1.88 µM	1.54 µM	3.45 µM	0.56 µM	2.15 µM
COc1ccc(-c2c(-c3ccc(C#N)c(F)c3)nc(N3CCC(N)CC3)n(C)c2=O)cc1F	13.1 µM	26 µM	16.3 µM	41.8 µM	9.31 µM	22.9 µM	19.6 µM	91.6 µM	14.4 µM	28.9 µM	12 µM	30.6 µM	14.9 µM	28.4 µM	25.5 µM	> 100 µM	18.5 µM	38.6 µM	15.5 µM	52.8 µM
Oc1[nH]c2ccccc2c1C=Nc1ccc(-n2cncn2)cc1	> 19.2 µM	> 25 µM	> 25 µM	> 25 µM	> 17.7 µM	> 25 µM	> 21.9 µM	> 25 µM	> 25 µM	> 25 µM	> 20.1 µM	> 25 µM	8.74 µM	> 25 µM	> 22.5 µM	> 25 µM	> 25 µM	> 25 µM	> 25 µM	> 25 µM
C[C@]12CCC(=O)C[C@@H]1CC[C@@H]1[C@@H]2CC[C@]2(C)[C@@H](OC(=O)N(CCCl)N=O)CC[C@@H]12	0.625 µM	15.4 µM	1.47 µM	12.8 µM	1.11 µM	10.5 µM	1.32 µM	25.4 µM	1.07 µM	18.1 µM	1.1 µM		1.05 µM	6.16 µM	0.405 µM	3.95 µM	3.47 µM	16.8 µM	4.88 µM	> 41.1 µM
COc1ccc2c(c1)C(=O)c1c-2n(CCCN(C)C)c(=O)c2cc([N+](=O)[O-])ccc12	< 0.01 µM	0.108 µM	< 0.01 µM	13.6 µM	< 0.01 µM	0.0294 µM	< 0.01 µM	0.0849 µM	< 0.01 µM	1.32 µM	< 0.0278 µM	1.05 µM	< 0.01 µM	< 0.012 µM	< 0.01 µM	0.0319 µM	0.545 µM	7.17 µM	0.181 µM	16.4 µM
COc1ccc2c(c1)nnc1c3cccnc3[nH]c21	0.758 µM and 0.403 µM	4.22 µM and 2.61 µM	0.31 µM and 0.55 µM		0.122 µM and 0.172 µM	1.11 µM and 2.17 µM	5.5 µM and 3.04 µM	14.1 µM and 14.9 µM	1.44 µM and 1.52 µM	9.43 µM and 12.3 µM	1.42 µM	> 100 µM	5.85 µM and 4.04 µM	12.6 µM and 18.9 µM	1.88 µM and 1.04 µM	12.9 µM and 4.46 µM	1.96 µM and 3.6 µM		2.82 µM and 6.62 µM	50 µM and > 100 µM
COc1ccc(-c2[nH]ncc2Nc2cc(OC)c(OC)c(OC)c2)cc1	6.13 µM	> 100 µM	2.51 µM	> 100 µM	3.29 µM	> 100 µM	4.04 µM	> 100 µM	0.177 µM	0.395 µM	3.31 µM	> 100 µM	1.34 µM	23 µM	4 µM	64.1 µM	10.3 µM	> 100 µM	1.93 µM	> 49.4 µM
COc1cnccc1Nc1nc(-c2nn(Cc3c(F)cc(OCCO)cc3F)c3ccccc23)ncc1OC	1.84 µM	19.3 µM	2.89 µM	16.4 µM	1.97 µM	8.43 µM	2.25 µM	8.69 µM	1.73 µM	6.18 µM	2.55 µM	> 100 µM	2.91 µM	13 µM	3.11 µM	11.5 µM	11 µM	27 µM	13.5 µM	61.6 µM
CC(C)(C)[Si](C)(C)OC1[C@@H](COC(=O)NC(=O)CCl)O[C@@H](n2cnc3c(N)ncnc32)[C@H]1O[Si](C)(C)C(C)(C)C (some centres undefined)	0.41 µM	1.13 µM	0.783 µM	1.67 µM	2.3 µM	5.88 µM	1.02 µM	2.32 µM	2.35 µM	8.89 µM	3.15 µM	9.79 µM	1.82 µM	5.02 µM	5.75 µM	12 µM	6.72 µM	13.8 µM		
O=C1/C(=C/c2ccc([N+](=O)[O-])o2)Oc2ccc(Cl)cc21	1.59 µM	3.19 µM	1.92 µM	4.5 µM	1.35 µM	3.87 µM	2.11 µM	5.07 µM	1.99 µM	4.5 µM	1.92 µM	5.08 µM	1.58 µM	3.03 µM	2.25 µM	4.88 µM	1.93 µM	3.83 µM		
Clc1ccc(-c2nc(NCc3ccco3)c3ccccc3n2)c(Cl)c1	8.98 µM	26.8 µM	22.2 µM	> 100 µM	26.8 µM	> 100 µM	17.1 µM	60.5 µM	16.1 µM	33.7 µM	13.9 µM	55.7 µM	13.9 µM	30 µM	8.38 µM	29.6 µM	36.8 µM	> 100 µM		
COc1cc(-c2ccc[nH]2)[nH]c1/C=C1\N=C(C)C(CC(=O)OCC(C)(C)C)=C1C	0.0733 µM	0.467 µM			0.173 µM	0.382 µM	0.441 µM	2.22 µM	0.282 µM	1.2 µM	0.1 µM	1.65 µM	0.137 µM	0.279 µM	0.226 µM	1.53 µM	0.157 µM	0.415 µM	0.0903 µM	1.7 µM
Cc1c(C(N)=O)sc2nc(C)n(/N=c3\scc(-c4ccccc4)n3Cc3ccccc3)c(=O)c12	3.54 µM	> 100 µM	1.43 µM	6.31 µM	1.66 µM	7 µM	3.12 µM	> 100 µM	2.89 µM	12.5 µM	2.15 µM	8.31 µM	1.81 µM	3.75 µM	3.9 µM	> 100 µM	3.89 µM	86.6 µM		
CCC(=O)Nc1nnc(Cc2ccc(OC)c(OC)c2)s1	> 100 µM	> 100 µM	> 100 µM	> 100 µM	> 100 µM	> 100 µM	> 100 µM	> 100 µM	> 100 µM	> 100 µM	> 100 µM	> 100 µM	> 100 µM	> 100 µM	> 100 µM	> 100 µM	> 100 µM	> 100 µM		
COc1cc(C(=O)n2nc(N)c3c(C)cc(C)nc32)cc(OC)c1OC	> 100 µM	> 100 µM	> 100 µM	> 100 µM	> 100 µM	> 100 µM	> 100 µM	> 100 µM	0.325 µM	6.01 µM	> 100 µM	> 100 µM	35.2 µM	> 100 µM	> 100 µM	> 100 µM	> 64.1 µM	> 100 µM		
